Laboratory results as given in US6653322B1, “Therapeutic combinations of RAR antagonists and RXR agonists and use thereof” (Bristol-Myers Squibb Company, priority 1996, dated 2003).
Entries after “also recorded” stand apart in the source; their conditions may differ.

Legend:
NB4 cells [1] = assay: NB4 cell differentiation (TPA-induced nitroblue tetrazolium reduction); format: cell-based, human
Experimental: NB4 cells were obtained from ATCC and were grown in RPMI-1640 (plus 2 mM L-glutamine) containing 100 […] penicillin and streptomycin and 8% fetal bovine serum (FBS). Cells were treated for four days with retinoid(s) or ethanol vehicle, then washed and resuspended at a density of 5×10^5 cells/ml. 50 microliter aliquots of this suspension were spread over poly-L-lysine coated slides (Sigma, St. Louis, Mo.). After washing with PBS (137 mM NaCl, 2.7 mM KCl, 4.3 mM Na2HPO4, 1.4 mM KH2PO4), the cells were fixed for 10 minutes in 2% formalin (37% formaldehyde in 15% methanol in water) at room temperature.
Following fixation, cells were washed three times in PBS and were scored by TPA (12-O-tetradecanoyl-phorbol-13-acetate, 200 ng/ml)-induced nitroblue tetrazolium reduction (Sigma Fast BCIP/NBT) for 30 minutes at 37° C. Samples were examined for cellular and nuclear morphology with an optical microscope (Diavert Leitz); the percentage of differentiated cells was determined by counting at least 300 cells for each treatment.

RARβ2 and RARγ mRNA = assay: RARβ/RARγ expression by reverse transcriptase PCR in NB4 cells; format: cell-based, human; conditions: for Expression of RARβ2 (and RARγ) by RT-PCR: retinoid alone
Experimental: Total RNA was isolated and reverse transcribed in a buffer solution comprising 10 mM Tris-HCl (pH 8.3), 50 mM KCl, 2 mM MgCl2 and 1 mM of all four deoxynucleoside triphosphates, using 25 units of AMV reverse transcriptase in the presence of 50 units of RNAsin for 60 minutes at 42° C. For reverse transcription, 25 picomoles per reaction of the common antisense primer 5′-[…]-3′ (SEQ ID NO:6) for either RARα, β or γ was used. For each PCR reaction the common antisense primer, one-fourth of the reverse transcribed product and the following specific sense primers were used: […]
The amplification was carried out in a final volume of 0.1 ml, using Taq DNA polymerase (Perkin Elmer Cetus) according the manufacturer's instructions. Eighteen PCR cycles (30 seconds at 94° C., 30 seconds at 65° C. and 30 seconds at 72° C.) were performed, and a 10 microliter aliquot of each reaction was analyzed by electrophoresis on a 6% native polyacrylamide gel, which was then stained with ethidium bromide and examined by ultraviolet illumination.

NB4 cells [2] = assay: NB4 cell apoptosis (flow cytometry, DNA fragmentation); format: cell-based, human; conditions: for Induction of NB4 cell apoptosis: retinoid alone
Experimental: The cell cycle distribution and presence of “sub-2N” cells and particles in control and retinoid-treated NB4 cells were determined by cell cycle flow cytometry based on DNA content, using an EPICS Profile II cell sorter (Coulter Electronics, Inc., Hialeah, Fla.) equipped with a 15 watt argon laser tuned to an excitation wavelength of 488 nm and filter sets providing an emission wavelength of 575 nm. Cultures of untreated or retinoid-treated cells were centrifuged (250×g) and fixed in 70% ethanol and stored at −20° C. Following two washes in PBS, the cells and subcellular particles were incubated in 1 mg/ml RNase A (59 Kunitz units/mg, Sigma Chemical Co., St. Louis, Mo.) for 30 minutes at 37° C., centrifuged and resuspended in PBS at a concentration of approximately 10^6 cells per ml. Ethidium bromide was added to a final concentration of 50 micrograms/ml immediately prior to sample analysis.
The induction of apoptosis by retinoids was also determined by the appearance of a “ladder” of fragmented DNA as previously described (Nagy, L., et al., Mol. Cell. Biol. 15:3540-3551 (1995)). Cells were refed with fresh media and retinoids every 2 days, and the cell density was maintained well below saturation in order to prevent cell death due to nutrient and/or mitogen depletion. Five micrograms per lane of DNA was electrophoresed in a 1.5% agarose gel, followed by staining with ethidium bromide, and DNA bands were visualized and photographed via ultraviolet illumination of ethidium bromide fluorescence.

PML-RARα = target: T1, PML-RARα (Homo sapiens, UniProt P10276+P29590); assay: Anti-PML immunofluorescence: association of PML/PML-RARα with nuclear bodies in NB4 cells; format: cell-based; conditions: with SR11237
T1 construct: induced the association of endogenous PMUPML-RARα with nuclear bodies; endogenous in cells; host or cells: NB4 human acute promyelocytic leukemia cells
T1 sequence (P10276 61-462 limits assumed): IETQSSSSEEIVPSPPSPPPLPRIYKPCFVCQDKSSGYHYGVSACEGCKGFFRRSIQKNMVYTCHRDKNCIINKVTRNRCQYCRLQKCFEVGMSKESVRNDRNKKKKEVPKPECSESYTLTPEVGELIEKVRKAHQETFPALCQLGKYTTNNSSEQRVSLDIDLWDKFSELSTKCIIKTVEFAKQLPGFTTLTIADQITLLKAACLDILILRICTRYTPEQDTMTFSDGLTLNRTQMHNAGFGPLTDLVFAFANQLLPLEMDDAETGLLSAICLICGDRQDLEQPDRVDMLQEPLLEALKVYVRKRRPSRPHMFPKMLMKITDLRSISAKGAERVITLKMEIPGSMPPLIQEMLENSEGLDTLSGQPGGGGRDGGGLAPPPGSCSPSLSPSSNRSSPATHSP
Experimental: Following fixation, cells were permeabilized with 0.1% Triton X-100 in PBS (buffer A). After washing in PBS, the cells were blocked in 0.5 mg/ml normal goat IgG (Jackson Laboratories, Bar Harbor, Me.) in PBS for 30 minutes at room temperature, and thereafter incubated overnight at 4° C. with a polyclonal anti-PML antibody (the kind gift of Dr. Anne Dejean), diluted in buffer A containing 0.5 mg/ml normal goat IgG (buffer B) at 4° C. After three washes in buffer A, the cells were incubated with donkey anti-rabbit IgG (H+L) conjugated with cyanine 3 (Jackson Laboratories, Bar Harbor, Me.) in buffer B for 1 hour at room temperature. Following washes in PBS the mounted samples were examined with a confocal laser microscope (TCS, Leica) equipped with cyanine optics for PML localization.

AP1 activity = conditions: via all three RARs; Chen et al. 1995; cited from earlier work
GAL-RARβ = target: T2, GAL-RARβ (Homo sapiens, UniProt P10826); assay: HeLa reporter cells, agonistic/antagonistic activity of RAR-specific ligands; format: cell-based; conditions: FIG. 1
T2 construct: expressed in transfected cells; host or cells: HeLa
T2 sequence (P10826 183-417 limits assumed): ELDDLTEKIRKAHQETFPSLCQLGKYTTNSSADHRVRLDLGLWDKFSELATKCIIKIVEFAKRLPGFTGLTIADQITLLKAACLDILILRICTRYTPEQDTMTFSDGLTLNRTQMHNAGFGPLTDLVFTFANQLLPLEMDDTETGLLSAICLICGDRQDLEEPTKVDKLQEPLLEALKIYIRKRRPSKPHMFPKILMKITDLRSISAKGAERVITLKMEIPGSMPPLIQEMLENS
Experimental: (§1) HeLa reporter cell lines containing a retinoid-inducible luciferase reporter gene (17 m)5-globin-Luc in the stably transfected reporter constructs GAL-RARα, GAL-RARβ or GAL-RARγ were constructed and used as described previously (Chen, J. Y., et al., EMBO J. 14:1187-1197 (1995)). Cells were treated with RAR-specific ligands, and luciferase-induced bioluminescence was monitored in vivo using a single-photon-counting camera (Hamamatsu) by seeding equal amounts of cells in 24-well tissue culture plates and incubating them with increasing concentrations of retinoids alone, or in the presence of T-RA to determine the antagonistic potential of the ligands.

GAL-RARγ = target: T3, GAL-RARγ (Homo sapiens, UniProt P13631); assay: as above; format: cell-based; conditions: FIG. 1
T3 construct: expressed in transfected cells; host or cells: HeLa
T3 sequence (P13631 185-419 limits assumed): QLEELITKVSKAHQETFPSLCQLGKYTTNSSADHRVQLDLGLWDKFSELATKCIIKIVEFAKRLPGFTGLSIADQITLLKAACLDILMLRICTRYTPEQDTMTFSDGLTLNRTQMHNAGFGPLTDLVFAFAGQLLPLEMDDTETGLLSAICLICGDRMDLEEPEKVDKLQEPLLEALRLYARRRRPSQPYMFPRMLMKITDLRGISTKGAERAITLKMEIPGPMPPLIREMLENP
Experimental: as §1

GAL-RARα = target: T4, GAL-RARα (Homo sapiens, UniProt P10276); assay: as above; format: cell-based; conditions: FIG. 1, FIG. 2
T4 construct: expressed in transfected cells; host or cells: HeLa
T4 sequence (P10276 183-417 limits assumed): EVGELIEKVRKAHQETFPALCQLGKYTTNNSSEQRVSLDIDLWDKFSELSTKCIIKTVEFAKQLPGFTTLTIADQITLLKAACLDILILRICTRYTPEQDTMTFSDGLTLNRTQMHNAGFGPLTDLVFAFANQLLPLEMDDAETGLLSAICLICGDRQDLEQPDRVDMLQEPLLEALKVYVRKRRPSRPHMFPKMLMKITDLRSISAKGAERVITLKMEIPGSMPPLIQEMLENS
Experimental: as §1

F9 EC cells = conditions: ligand on its own, Roy et al. 1995; cited from earlier work
P19 cells = conditions: ligand on its own, Roy et al. 1995; cited from earlier work
[3] = in presence of RXR agonist SR11237
[4] = retinoid alone at 1 (concentration unit not given), 4 days
[5] = retinoid alone at 10 (concentration unit not given), 4 days
[6] = retinoid alone at 100 (concentration unit not given), 4 days
[7] = retinoid at 1 +100 nM SR11237, 4 days
[8] = retinoid alone at 1000 (concentration unit not given), 4 days
[9] = retinoid at 10 +100 nM SR11237, 4 days
[10] = retinoid at 100 +100 nM SR11237, 4 days

| Structure (SMILES) | Induction of NB4 cell differentiation (NB4 cells [1]; [3]) | Percentage of NB4 cells differentiated (NB4 cells [1]; [4]) [%] | Percentage of NB4 cells differentiated (NB4 cells [1]; [5]) [%] | Percentage of NB4 cells differentiated (NB4 cells [1]; [6]) [%] | Percentage of NB4 cells differentiated (NB4 cells [1]; [7]) [%] | Induction of NB4 cell differentiation (NB4 cells [1]; retinoid on its own) | Expression of RARβ2 (and RARγ) by RT-PCR (RARβ2 and RARγ mRNA) | Percentage of NB4 cells differentiated (NB4 cells [1]; [8]) [%] | Induction of NB4 cell apoptosis (NB4 cells [2]) | Percentage of NB4 cells differentiated (NB4 cells [1]; [9]) [%] | Percentage of NB4 cells differentiated (NB4 cells [1]; [10]) [%] | further results |
| --- | --- | --- | --- | --- | --- | --- | --- | --- | --- | --- | --- | --- |
| CC1(C)CCC(C)(C)c2cc(NC(=O)c3ccc(C(=O)O)cc3)ccc21 [Am80] | significantly more efficient at inducing differentiation at low concentrations | 80 | 81 | 80 | 80 | efficiently induced differentiation | induced expression of RARβ2 (and RARγ) was confirmed | – | – | – | – | Percentage of NB4 cells differentiated (NB4 cells [1]; retinoid alone at 0.1 (concentration unit not given), 4 days): <1%; Percentage of NB4 cells differentiated (NB4 cells [1]; retinoid alone at 0.3 (concentration unit not given), 4 days): <1%; Percentage of NB4 cells differentiated (NB4 cells [1]; retinoid alone at 0.5 (concentration unit not given), 4 days): <1%; Percentage of NB4 cells differentiated (NB4 cells [1]; retinoid at 0.1 +100 nM SR11237, 4 days): <1%; Percentage of NB4 cells differentiated (NB4 cells [1]; retinoid at 0.3 +100 nM SR11237, 4 days): 20%; Percentage of NB4 cells differentiated (NB4 cells [1]; retinoid at 0.5 +100 nM SR11237, 4 days): 40% |
| CC1=C(/C=C/C(C)=C\C=C\C(C)=C\C(=O)O)C(C)(C)CCC1 [Compound 9C-RA, 9-cis (9C-RA) retinoic acid] | – | <1 | 4 | 65 | – | – | – | 70 | – | – | – | – |
| CC1(C)CC=C(c2ccccc2)c2cc(/C=C/c3ccc(C(=O)O)cc3)ccc21 [Compound A] | induced differentiation with higher efficiency than T-RA or 9C-RA | – | – | – | <1 | ineffective on their own | no induction | <1 | inefficient alone | 65 | 78 | Antiproliferative and apoptotic effect on NB4 cells (NB4 cells [2]; in combination with SR11237): strong antiproliferative and apoptotic effect; Association of PML-RARα with nuclear bodies (PML-RARα): indistinguishable from that seen in presence of RARα agonists; RARβ and RARγ mRNA production (RARβ2 and RARγ mRNA; with SR11237): efficient accumulation of RARβ and RARγ mRNA; Repression of AP1 activity (AP1 activity): efficiently repressing AP1 activity via all three RARs |
| CC1(C)CC=C(c2cnc3ccccc3c2)c2cc(C(=O)Nc3ccc(C(=O)O)cc3)ccc21 [Compound B] | induced differentiation | – | – | – | <1 | ineffective on their own | – | <1 | – | 3 | 5 | Block of differentiation induced by 1 nM Am80 (NB4 cells [1]; excess of the compound): completely blocked; Percentage of NB4 cells differentiated (NB4 cells [1]; retinoid at 1000 +100 nM SR11237, 4 days): 10%; Binding to RARβ (GAL-RARβ): does not bind; Binding to RARγ (GAL-RARγ): does not bind; Binding to RARα (GAL-RARα): lower binding affinity for RARα |
| CC1(C)CCC(C)(C)c2cc(C3(c4ccc(C(=O)O)cc4)OCCO3)ccc21 [SR11237] | – | – | – | – | – | ineffective on their own; also recorded: did not induce differentiation | – | <2 | inefficient alone | – | – | Induction of differentiation and expression of RA target genes (F9 EC cells): unable to induce; Induction of differentiation and expression of RA target genes (P19 cells): unable to induce |
| CC1=C(/C=C/C(C)=C/C=C/C(C)=C/C(=O)O)C(C)(C)CCC1 [T-RA, all-trans retinoic acid] | – | <1 | <1 | 81 | – | – | – | 80 | extensive apoptosis | – | – | – |
